Among the data in patent publication US20230159527A1, “COMPOUNDS AS BCL-2 INHIBITORS” (Fochon Pharmaceuticals, Ltd., priority 2020, published 2023) are IC50 values, retold here.

Assay [1] has as its system DoHH2 cells. The assay is described as follows: Cell proliferation assay, DoHH2 cells (MTS, 120 h). In kind it is cell-based. To be noted: Homo sapiens, DOHH-2. The protocol:
MTS testing kit was purchased from Promega (Madison, Wis., USA). The RPMI-1640, Fetal bovine serum and Penicillin-Streptomycin were purchased from BI (Biological Industries, Beit Haemek, Israel). Dimethyl sulfoxide (DMSO) was purchased from Sigma (St. Louis, Mo., USA). DoHH2 (DSMZ catalog #: ACC47) cells were cultured in RPMI-1640 supplemented with Penicillin-Streptomycin and 10% FBS.
To investigate whether a compound is able to inhibit the activity of BCL-2 in cells, a mechanism-based assay using DoHH2 lines was developed. In this assay, the inhibition of BCL-2 was reflected by the inhibition of cell proliferation of DoHH2 cells. Cells were plated into 96-well plates at the optimized cell density of 5000 cells/well. Plates were incubated at 37° C., with 5% CO2 for 4h. Compounds were serially diluted and added to the plates with the final concentrations of 10000, 3333.3, 1111.1, 370.4, 123.5, 41.2, 13.7, 4.6 and 1.5 nM. Plates were incubated at 37° C., with 5% CO2 for 120 h. 20 μl MTS was added into each well and the plates were incubated at 37° C., with 5% CO2 for exactly 2 h. The absorbance was measured by a microplate reader at 490 nm. IC50 was calculated using GraphPad Prism 5.0 software.

Assay [2] deals with Toledo cells. The assay can be described thus: Cell proliferation assay, Toledo cells (MTS, 72 h). Type of assay: cell-based. Summed up: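 Toledo cells (30000/well, RPMI-1640 with 10% FBS) were preincubated for 4 h. They were then exposed to nine compound concentrations from 10000 to 1.5 nM for 72 h at 37 °C, 5% CO2. MTS was added for 2 h and absorbance read at 490 nm to give IC50.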

The mark [3] stands for this setting: Homo sapiens, Toledo cells, MTS, read-out: Toledo IC50.

Like-named read-outs stand apart in the source and are kept apart here. A value given as a limit tells only on which side of the number the result lay.

`CC(C)c1ccccc1C1CCCN1C1CC2(CCN(c3ccc(C(=O)NS(=O)(=O)c4cc([N+](=O)[O-])c5c(n4)OC[C@H](CC4CCOCC4)N5)c(Oc4cnc5[nH]ccc5c4)c3)CC2)C1` (single isomer, unassigned) [Example B-40, 2-((1H-pyrrolo[2,3-b]pyridin-5-yl)oxy)-4-(2-((R or S)-2-(2-isopropylphenyl)pyrrolidin-1-yl)-7-azaspiro[3.5]nonan-7-yl)-N-(((S)-8-nitro-2-((tetrahydro-2H-pyran-4-yl)methyl)-2,3-dihydro-1H-pyrido[2,3-b][1,4]oxazin-6-yl)sulfonyl)benzamide]: the IC50 in assay [1] is ≤ 1 nM.

For `CC(C)c1ccccc1C1COCCN1C1CC2(CCN(c3ccc(C(=O)NS(=O)(=O)c4cc5c(c([N+](=O)[O-])c4)N[C@@H](CN4CCC(NS(C)(=O)=O)CC4)CO5)c(Oc4cnc5[nH]ccc5c4)c3)CC2)C1` (single isomer, unassigned) [Example D-23, 2-((1H-pyrrolo[2,3-b]pyridin-5-yl)oxy)-4-(2-((R or S)-3-(2-isopropylphenyl)morpholino)-7-azaspiro[3.5]nonan-7-yl)-N-(((S)-3-((4-(methylsulfonamido)piperidin-1-yl)methyl)-5-nitro-3,4-dihydro-2H-benzo[b][1,4]oxazin-7-yl)sulfonyl)benzamide], in assay [1], the half-maximal inhibitory concentration (IC50) is ≤ 1 nM.

Turning to `CC(C)c1ccccc1[C@@H]1CCCN1C1CC2(CCN(c3ccc(C(=O)NS(=O)(=O)c4cc([N+](=O)[O-])c5c(n4)OC[C@H]([C@H]4CC[C@@](C)(O)CC4)N5)c(Oc4cnc5[nH]ccc5c4)c3)CC2)C1` (single isomer, unassigned) [Example B-35, 2-((1H-pyrrolo[2,3-b]pyridin-5-yl)oxy)-N-(((S)-2-((1s,4R)-4-hydroxy-4-methylcyclohexyl)-8-nitro-2,3-dihydro-1H-pyrido[2,3-b] [1,4]oxazin-6-yl)sulfonyl)-4-(2-((R or S)-2-(2-isopropylphenyl)pyrrolidin-1-yl)-7-azaspiro[3.5]nonan-7-yl)benzamide], in assay [1], the concentration for half-maximal inhibition (IC50) is ≤ 1 nM.

Turning to `CC(C)c1ccccc1C1CCCN1C1CC2(CCN(c3ccc(C(=O)NS(=O)(=O)c4cc([N+](=O)[O-])c5c(n4)OC[C@@H](Cc4ccccc4)N5)c(Oc4cnc5[nH]ccc5c4)c3)CC2)C1` (single isomer, unassigned) [Example B-36, 2-((1H-pyrrolo[2,3-b]pyridin-5-yl)oxy)-N-(((R)-2-benzyl-8-nitro-2,3-dihydro-1H-pyrido[2,3-b] [1,4]oxazin-6-yl)sulfonyl)-4-(2-((R or S)-2-(2-isopropylphenyl)pyrrolidin-1-yl)-7-azaspiro[3.5]nonan-7-yl)benzamide], the IC50 in assay [1] is ≤ 1 nM.

`O=C(NS(=O)(=O)c1cc2c(c([N+](=O)[O-])c1)N[C@@H](CN1CCOCC1)CCO2)c1ccc(N2CCC3(CC2)CC(N2CCC[C@H]2c2ccccc2C2CC2)C3)cc1Oc1cnc2[nH]ccc2c1` (single isomer, unassigned) [Example D-24, 2-((1H-pyrrolo[2,3-b]pyridin-5-yl)oxy)-4-(2-((R or S)-2-(2-cyclopropylphenyl)pyrrolidin-1-yl)-7-azaspiro[3.5]nonan-7-yl)-N-(((R)-4-(morpholinomethyl)-6-nitro-2,3,4,5-tetrahydrobenzo [b][1,4]oxazepin-8-yl)sulfonyl) benzamide]: in assay [1], the half-maximal inhibitory concentration (IC50) was ≤ 1 nM.

As for `COc1nc2[nH]ccc2cc1Oc1cc(N2CCC3(CC2)CN([C@H]2CCC[C@H]2c2ccccc2C(C)C)C3)ccc1C(=O)NS(=O)(=O)c1ccc(NC[C@H]2CC[C@](C)(O)CC2)c([N+](=O)[O-])c1` (single isomer, unassigned) [Example D-91, N-((4-((((1r,4r)-4-hydroxy-4-methylcyclohexyl)methyl)amino)-3-nitrophenyl)sulfonyl)-4-(2-((1S,2S or 1R,2R)-2-(2-isopropylphenyl)cyclopentyl)-2,7-diazaspiro[3.5]nonan-7-yl)-2-((6-methoxy-177-pyrrolo [2,3-b]pyridin-5-yl)oxy)benzamide], the half-inhibitory concentration (IC50) in assay [2] (setting [3]) is 1 nM.

As for `CC(C)c1ccccc1[C@@H]1CCC[C@@H]1N1CC2(CCN(c3ccc(C(=O)NS(=O)(=O)c4cc5c(c([N+](=O)[O-])c4)N[C@@H]([C@H]4CC[C@](C)(O)CC4)CO5)c(Oc4cc5cc[nH]c5nc4OC4COC4)c3)CC2)C1` (single isomer, unassigned) [Example D-108, N-(((S)-3-((1r,4S)-4-hydroxy-4-methylcyclohexyl)-5-nitro-3,4-dihydro-2H-benzo[b][1,4]oxazin-7-yl)sulfonyl)-4-(2-((1S,2S or 1R,2R)-2-(2-isopropylphenyl)cyclopentyl)-2,7-diazaspiro[3.5]nonan-7-yl)-2-((6-(oxetan-3-yloxy)-1H-pyrrolo[2,3-b]pyridin-5-yl)oxy) benzamide], the half-maximal inhibitory concentration (IC50) in assay [2] (setting [3]) was 1 nM.

As for `CC(C)c1ccccc1[C@@H]1CCCN1C1CC2(CCN(c3ccc(C(=O)NS(=O)(=O)c4cc5c(c([N+](=O)[O-])c4)N[C@H]([C@H]4CC[C@H](O)CC4)CO5)c(Oc4cnc5[nH]cc(F)c5c4)c3)CC2)C1` (single isomer, unassigned) [Example D-42, 2-((3-fluoro-1H-pyrrolo[2,3-b]pyridin-5-yl)oxy)-N-(((R)-3-((1r,4R)-4-hydroxycyclohexyl)-5-nitro-3,4-dihydro-2H-benzo[b][1,4]oxazin-7-yl)sulfonyl)-4-(2-((R or S)-2-(2-isopropylphenyl)pyrrolidin-1-yl)-7-azaspiro[3.5]nonan-7-yl)benzamide], the IC50 in assay [2] (setting [3]) stood at 1 nM.

Take `CC(C)c1ccccc1[C@@H]1COCCN1C1CC2(CCN(c3ccc(C(=O)NS(=O)(=O)c4cnc(NC[C@H]5CC[C@](C)(O)CC5)c([N+](=O)[O-])c4)c(Oc4cc5cc[nH]c5nc4OC(F)F)c3)CC2)C1` (single isomer, unassigned) [Example A-126, 2-((6-(difluoromethoxy)-1H-pyrrolo [2,3-b]pyridin-5-yl)oxy)-N-((6-((((1r,4r)-4-hydroxy-4-methylcyclo-hexyl)methyl)amino)-5-nitropyridin-3-yl)sulfonyl)-4-(2-((R or S)-3-(2-isopropylphenyl)morpholino)-7-azaspiro[3.5]nonan-7-yl) benzamide]: the IC50 in assay [2] (setting [3]) amounted to 1 nM.

Turning to `CC(C)c1ccccc1[C@@H]1CCC[C@@H]1N1CC2(CCN(c3ccc(C(=O)NS(=O)(=O)c4cc5c(c([N+](=O)[O-])c4)N[C@@H]([C@H]4CC[C@](C)(O)CC4)CO5)c(Oc4cnc5[nH]cc(F)c5c4)c3)CC2)C1` (single isomer, unassigned) [Example D-28b, 2-((3-fluoro-1H-pyrrolo[2,3-b]pyridin-5-yl)oxy)-N-(((S)-3-((1r,4S)-4-hydroxy-4-methylcyclohexyl)-5-nitro-3,4-dihydro-2H-benzo[b] [1,4]oxazin-7-yl)sulfonyl)-4-(2-((1S,2S or 1R,2R)-2-(2-isopropylphenyl)cyclopentyl)-2,7-diazaspiro[3.5]nonan-7-yl)benzamide], the 50% inhibitory concentration (IC50) in assay [2] (Toledo cells, MTS, read-out: Toledo IC50) stood at 1 nM.

In the case of `CC(C)c1ccccc1[C@@H]1CCCN1C1CC2(CCN(c3ccc(C(=O)NS(=O)(=O)c4ccc(NC[C@H]5CC[C@](C)(O)CC5)c([N+](=O)[O-])n4)c(Oc4cnc5[nH]ccc5c4)c3)CC2)C1` (single isomer, unassigned) [Example C-2, 2-((1H-pyrrolo[2,3-b]pyridin-5-yl)oxy)-N-((5-((((1r,4r)-4-hydroxy-4-methylcyclohexyl)methyl)amino)-6-nitropyridin-2-yl)sulfonyl)-4-(2-((R or S)-2-(2-isopropylphenyl)pyrrolidin-1-yl)-7-azaspiro[3.5]nonan-7-yl)benzamide], in assay [2] (Homo sapiens, Toledo, read-out: Toledo IC50 (nM)), the 50% inhibitory concentration (IC50) came to 1 nM.

For orientation: IC50 means the midpoint of a concentration-inhibition curve.
